Reference: patent EP0404374A2, “Composition” (IMPERIAL CHEMICAL INDUSTRIES PLC, priority 1989, dated 1990)
Structures can show the parent of a compound that is named as a salt.

Assays:
[1] = tested on: purified components of the cellulase complex; conditions: Wood et al, Biochem.J. (1980), 189, 51 to 65; cited from earlier work
[2] = tested on: cellulase from Aspergillus niger; assay: cellulase activity: viscosity (flow time) of carboxymethyl cellulose solution; type: biochemical; conditions: additive 10mM dm⁻³ pre-incubated with enzyme one hour at 25°C, about 24 minutes in the absence of cellulase; for Flow Rate (b) With additive 10: flow time after 10 minutes incubation; for Flow Rate (b) With additive 60: flow time after 60 minutes incubation
Description: To determine cellulase activity, 15cm³ of a 1% w/v solution of carboxymethyl cellulose in 50mM/dm³ of a tris (hydroxymethyl) aminomethane/hydrochloric acid buffer having a pH of 9, was incubated at 25°C with 0.01cm³ of a 10mg.cm⁻³ aqueous solution of cellulase from Aspergillus niger obtained from the Sigma Chemical Company.
The viscosity of the cellulose solution was determined after being incubated with the cellulase for either 10 or 60 minutes
To determine the effect of an additive on the spoilage activity of the enzyme, the compound was incubated with the enzyme at 25°C for a period of one hour, the concentration of the additive being 10mM dm⁻³ . The pre-incubated mixture was then added to a carboxymethyl cellulose solution of the type previously described. The resulting mixture was incubated and the viscosity was determined after 10 and 60 minutes incubation.

protease from S. griseus = assay: protease catalysed hydrolysis of chromogenic substrate; type: biochemical; conditions: substrate BTEE, one hour at 25°C, pH7
Description: N,N¹-dichlorodimethyl hydantoin was dissolved in ethanol in a known amount and was added to a protease in a 0.1M potassium phosphate buffer containing potassium dihydrogen phosphate and dipotassium hydrogen phosphate at pH7. The mixture was incubated for one hour at 25°C and the enzyme activity was then compared to that of a control by monitoring the protease catalysed hydrolysis of an appropriate chromogenic substrate.

[3] = tested on: amylase (1,4-α-D-glucan-glucanhydrolase; EC 3.2.1.1); assay: amylase activity in the breakdown of starch (3,5-dinitrosalicylate, absorbance at 540nm); type: biochemical, Bacillus species; conditions: amylase incubated for 90 minutes with 9 X 10⁻⁴M compound; absorption at 540nm
Description: A sample of amylase (1,4-α-D-glucan-glucanhydrolase; EC 3.2.1.1) from a Bacillus species (amylase sample obtained from the Sigma Chemical Company) was tested for activity in the breakdown of starch in the presence and absence of N,N¹-dichlorodimethyl hydantoin.
The activity of the amylase was estimated by a modification of the method described in Methods in Enzymology, published by the Academic Press, Volume 1, on page 149.
1g of potato amylopectin (a soluble starch) was dissolved in 200cm³ of a 20mM sodium phosphate aqueous buffer solution adjusted to pH7. 1cm³ of this solution was equilibrated in a water bath maintained at 25 °C. To the foregoing solution were added 2mm³ of an aqueous solution containing amylase in a concentration of 1mg of amylase/cm³ of solution. The mixture was incubated at 25 °C for five minutes. The reaction was then stopped by the addition of 1cm³ of a 0.4M aqueous sodium hydroxide solution containing 10mg/cm³ of 3,5-dinitrosalicylate and 0.3g/cm³ of sodium potassium tartrate. The resultant mixture was placed in a boiling water bath for five minutes, cooled rapidly and diluted with 10cm³ of water (deionised and subsequently doubly distilled in glass apparatus). The absorbance of the resulting mixture at 540nm was determined using a Perkin Elmer LAMBDA 15 spectrophoto meter.

[4] = tested on: lipase from Pseudomonas species; assay: lipase activity, turbidimetric method with triolein; type: biochemical; conditions: enzyme PS; 9 millimoles; incubated 30 minutes at 25°C, pH 9.2; relative to control
Description: (§1) N,N¹-dichlorodimethyl hydantoin in an amount of 9 millimoles was dissolved in ethanol and added to a lipase in a tris (hydroxymethyl) aminomethane/hydrochloric acid buffer at a pH of 9.2. The mixture was incubated for 30 minutes at 25°C and neutralised by the addition of thiosulphate. The activity of the enzyme was determined as described hereafter.
(§2) Lipase activity was determined by the turbidimetric method described on pages 26 to 34 of "Methods of Enzymatic Analysis" Third Edition, edited by H V Bergmeyer and published by Verlag Chemie. The decrease in the light scattering of triolein (1,2,3-tris[cis-9-octadecenoyl]glycerol) by lipase was measured at 25°C and 350 nanometres on a Perkin-Elmer Lambda 15 spectrophotometer. Light scattering was measured on 2.8cm³ of an aqueous solution containing 24 micromoles of "Tris" buffer at pH 9.2, one micromole of calcium chloride, 35 micromoles of sodium chloride, 17.5 micromoles of sodium deoxycholate and 0.28 micromole of triolein. The activity was determined by the addition of 5mm³ of an aqueous solution containing 4.5mg cm⁻³ of lipase. Table Two

[5] = tested on: lipase from Candida cylindracea; assay: as above; type: biochemical; conditions: enzyme CC; 9 millimoles; incubated 30 minutes at 25°C, pH 9.2; relative to control
Description: as §1, §2

[6] = target: chymotrypsin (EC 3.4.21.1) (Bos taurus, UniProt P00766); assay: protease catalysed hydrolysis of chromogenic substrate; type: biochemical; conditions: pH 7, substrate BTEE, one hour at 25°C, pH7, read-out: % of activity retained (h)
Description: N,N¹-dichlorodimethyl hydantoin was dissolved in ethanol in a known amount and was added to a protease in a 0.1M potassium phosphate buffer containing potassium dihydrogen phosphate and dipotassium hydrogen phosphate at pH7.

Row | Compound | Flow Rate (b) With additive 10 [2] [min] | Flow Rate (b) With additive 60 [2] [min] | also measured
1 | O=C1CCC(=O)N1Br [N-bromosuccinimide] |  |  | effect on the activity of the enzyme [1]: potent inhibitor
2 | Cln1cncn1 [CT, 1-chloro-1,2,4-triazole] | 23.50 | 22.90 | 
3 | sodium tetrachloroaurate [STCA] | 23.80 | 23.70 | 
4 | CC1(C)C(=O)N(Cl)C(=O)N1Cl [DCMH, N,N¹-dichlorodimethyl hydantoin] | 23.10 | 22.90 | % of activity retained (h) (protease from S. griseus; DCMH 0.9 mM): 88%; % of activity retained (h) (protease from S. griseus; DCMH 9.0 mM): 9%; breakdown of starch to sugar [3]: no breakdown of starch to sugar could be deteced; % of activity retained (d) [4]: 45%; % of activity retained (d) [5]: 14%; activity at 900 µM ([6]; DCMH 0.9 mM): 66%; activity at 9000 µM ([6]; DCMH 9.0 mM): 29%
5 | O=c1[nH]c(=O)n(Cl)c(=O)n1Cl [DCIS, sodium salt of dichlorosiocyanuric acid] | 21.90 | 19.40 | 
6 | O=S(=O)(c1ccccc1)N(Cl)Cl [DCBS, N,N-dichlorobenzene sulphonamide] | 21.20 | 18.80 | 
7 | CC(=O)OI(OC(C)=O)c1ccccc1 [PIDA, phenyl iodonium di-acetate] | 22.60 | 21.80 | 
8 | O=c1[nH]c(=O)n(Cl)c(=O)n1Cl [DCIA, dichloroisocyanuric acid] | 22.10 | 22.30 | 
9 | O=C1N(Cl)C2C(N1Cl)N(Cl)C(=O)N2Cl (centres unmarked) [TCG, tetrachloroglycoluril] | 23.60 | 23.00 | 
10 | CC12N(Cl)C(=O)N(Cl)C1(C)N(Cl)C(=O)N2Cl (centres unmarked) [TCMG, tetrachloro-dimethyl glycoluril] | 22.80 | 22.50 | 
